From patent publication US20090081197A1 (Palatin Technologies, Inc., priority 2007, published 2009)
Non-standard residues stand in square brackets, D forms with d. Residues, ends and D or L forms follow the SMILES beside them. *: point of attachment. dPhe(4-Cl) = N[C@H](Cc1ccc(Cl)cc1)C(=O)O; Ahp = NCCCCCCC(=O)O; Bn = c1ccc(C*)cc1

What was measured:
[1] = IV and IP food intake and body weight change, rats; assay type: in vivo; details: rat, IV
Summary of the method: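 Male Sprague-Dawley rats dosed IV (0.5-3, up to 10 mg/kg) or IP (0.5-10, up to 50 mg/kg); male C57BL/6 mice dosed IP. Change in food intake and body weight over 24 h post-dose versus 1-week vehicle baseline, with 48 and 72 h reversal checks.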

[2] = molecular target: T1, MC4-R (Homo sapiens, UniProt P32245); experiment: cAMP agonist stimulation, high receptor density system (10 ng/mL doxycycline); details: for Efficacy/Intrinsic Activity: 10 ng/mL doxycycline, high receptor density hMC4-R system, NDP-α-MSH maximal cAMP = 1.0
T1 sequence (P32245 whole entry): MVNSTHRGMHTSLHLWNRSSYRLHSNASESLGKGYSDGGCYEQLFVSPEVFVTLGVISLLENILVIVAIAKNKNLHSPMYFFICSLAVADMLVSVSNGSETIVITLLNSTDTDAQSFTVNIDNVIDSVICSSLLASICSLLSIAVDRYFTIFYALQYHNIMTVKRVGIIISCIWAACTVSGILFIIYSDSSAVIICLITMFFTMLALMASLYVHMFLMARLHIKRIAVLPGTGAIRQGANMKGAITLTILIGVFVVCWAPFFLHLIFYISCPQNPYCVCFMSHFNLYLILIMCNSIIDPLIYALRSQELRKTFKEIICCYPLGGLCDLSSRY

[3] = molecular target: T2, MC1-R (Mus musculus, UniProt Q01727); experiment: Competitive inhibition assay using [I^125]-NDP-α-MSH, B-16 mouse melanoma cell membranes; assay type: binding; details: for inhibition at 1 µM: 1 μM test compound, read-out: Inhibition at 1 μM (NDP-α-MSH) In Normal System, MC1-R
T2 construct: B-16 mouse melanoma cells (containing MC1-R); endogenous in cells
T2 sequence (Q01727 whole entry): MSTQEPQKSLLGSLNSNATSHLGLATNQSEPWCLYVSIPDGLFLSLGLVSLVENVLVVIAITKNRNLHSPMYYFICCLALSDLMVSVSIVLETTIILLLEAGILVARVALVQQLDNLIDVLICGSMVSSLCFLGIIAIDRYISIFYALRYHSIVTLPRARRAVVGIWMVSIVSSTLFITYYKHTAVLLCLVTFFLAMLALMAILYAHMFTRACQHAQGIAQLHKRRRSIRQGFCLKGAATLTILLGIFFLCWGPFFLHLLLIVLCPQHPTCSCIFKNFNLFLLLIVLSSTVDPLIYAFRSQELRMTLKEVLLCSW
Summary of the method: (§1)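 Tracer was 0.4 nM for MC3-R and MC5-R, 0.2 nM for MC4-R and 0.1 nM for MC1-R. Bound radioactivity was gamma-counted after filtration; values are triplicate means, with results below 0% reported as 0%.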

[4] = ICV food intake and body weight change; assay type: in vivo; details: rat, 1 nmol, 24 hours
Summary of the method: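 Rats fitted with intracerebroventricular cannulas and fed ad libitum got a single ICV dose of vehicle or compound (1-3 nmol). Food intake and body-weight change over the 24 h after dosing were compared with a 1-week vehicle baseline. Values at 48 h and 72 h were also recorded to follow return to baseline.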

[5] = molecular target: T1, MC4-R; experiment: cAMP agonist stimulation, low receptor density system (0.1 ng/mL doxycycline); details: 0.1 ng/mL doxycycline, low receptor density hMC4-R system; NDP-α-MSH maximal cAMP = 1.0
[6] = molecular target: MC5-R (Homo sapiens, UniProt P33032); experiment: Competitive inhibition assay using [I^125]-NDP-α-MSH, hMC5-R membranes; assay type: binding; parameters: expressed in transfected cells; details: 1 μM test compound; read-out: Inhibition at 1 μM (NDP-α-MSH) In Normal System, MC5-R
Chain of MC5-R (P33032 whole entry): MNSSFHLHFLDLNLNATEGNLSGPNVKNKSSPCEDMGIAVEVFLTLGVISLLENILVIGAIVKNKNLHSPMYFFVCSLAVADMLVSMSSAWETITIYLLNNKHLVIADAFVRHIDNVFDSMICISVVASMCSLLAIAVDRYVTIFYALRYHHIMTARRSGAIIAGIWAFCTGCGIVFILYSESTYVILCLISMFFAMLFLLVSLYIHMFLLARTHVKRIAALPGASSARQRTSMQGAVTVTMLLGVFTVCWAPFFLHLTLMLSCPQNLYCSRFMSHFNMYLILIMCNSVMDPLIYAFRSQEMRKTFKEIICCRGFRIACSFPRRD
Summary of the method: as §1

[7] = Penile erection induction in male rats; assay type: in vivo; details: rat
Summary of the method: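 Male Sprague-Dawley rats (200-250 g), groups of 4-8, dosed IV or ICV at various doses and observed individually for penile erections. Only statistically relevant increases over vehicle-control mean PEs count as induction; IV responses below 1.0 PEs/rat treated as equivocal, some retested ICV.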

[8] = molecular target: T1, MC4-R; experiment: cAMP functional activity assay in HEK-293 cells, normal system; assay type: cell-based; parameters: expressed in transfected cells; host or cells: HEK-293; details: for intrinsic activity at MC4-R in a normal system: normal receptor density system, NDP-α-MSH = 1.0

SMILES: N=C(N)NCCC[C@H](NC(=O)[C@@H](Cc1ccc(Cl)cc1)NC(=O)[C@H](COCc1ccccc1)NC(=O)CCCCCCN)C(=O)N[C@@H](Cc1c[nH]c2ccccc12)C(=O)N[C@@H](CC(=O)O)C(N)=O [Example 13, NH2—(CH2)6—C(═O)-Ser(Bzl)-D-Phe(4-Cl)-Arg-Trp-Asp-NH2] (H-[Ahp]S(Bn)[dPhe(4-Cl)]RWD-NH2)
- 24 hour decrease in food intake ([1]; dose not stated): 6%
- decrease in body weight ([1]; dose not stated, 24 hours): 1%
- EC50 [2]: 34 nM
- Efficacy/Intrinsic Activity [2]: 0.72
- inhibition at 1 µM [3]: 35%
- decrease in body weight [4]: 2.1%
- decrease in food intake [4]: 25.7%
- Efficacy/Intrinsic Activity [5]: None
- inhibition at 1 µM [6]: 48%
- Penile Erection IV ([7]; IV): No
- penile erection response ([7]; IV): no penile erections
- intrinsic activity at MC4-R in a normal system [8]: 0.5

SMILES: N=C(N)NCCC[C@H]1CN(CCc2ccc3ccccc3c2)CCN1C(=O)[C@H](N)Cc1ccc(Cl)cc1Cl [Example 17, N-{3-[(S)-1-[(R)-2-Amino-3-(2,4-dichloro-phenyl)-propionyl]-4-(2-naphthalen-2-yl-ethyl)-piperazin-2-yl]-propyl}-guanidine]
- maximal decrease in food intake ([1]; 10 mg/kg, 24 hours): 91%
- EC50 [2]: 847 nM
- Efficacy/Intrinsic Activity [2]: 0.67
- inhibition at 1 µM [3]: 6%
- Ki ([3]; read-out: Ki (nM) (NDP-α-MSH) In Normal System, MC1-R): 1200 nM
- decrease in food intake [4]: 32%
- Efficacy/Intrinsic Activity [5]: None
- inhibition at 1 µM [6]: 75%
- Penile Erection ICV ([7]; ICV): No
- penile erection response ([7]; ICV, 0.3 to 3 nmole): no penile erection response
- Penile Erection IV ([7]; IV): No
- penile erection response ([7]; IV, 0.3 to 30 μg/kg): no penile erection response
- intrinsic activity at MC4-R in a normal system [8]: 0.4
- functional status at MC4-R in cAMP assay ([8]; normal system, 1 μM concentration where stated): partial agonist (intrinsic activity between 0.1 (10%) and 0.7 (70%) is classified as a partial agonist)
